Several values for one entry are separate records, joined by “and”; a condition that tells them apart may be missing. Identical values can stand only once.
Tests used:
Type in all cases: in vivo, rat
[1] = tested on: newly formed cells (BrdU) in the subventricular zone and the dentate gyrus; test: BrdU-positive newly formed cells in rats after embolic MCA occlusion treated with DETANONO
Description: A pharmacological method to promote neurogenesis in brain was developed. Male Wistar rats were subjected to middle cerebral artery (MCA) occlusion by means of intraarterial placement of a clot at the origin of the right MCA. Animals were administered (iv/ip) nitric oxide donor compounds (DETANONO) after induction of stroke, at 24 and 48 hours (Group 1), or at 24 hours followed by daily injection (ip) of NO donor compound (Group 2). BrdU, a thymidine analog which identifies the formation of new cells, was injected (ip) daily over a period of 14 days from the onset of ischemia. Identification of cell type was determined by labeling immunoreactivity of specific cell proteins. Thus, neurons were identified by expression of NeuN, MAP2 and the astrocytes formed by GFAP. Measurements of neurogenesis were performed within specific regions of brain, the subventricular zone and the dentate gyrus.

[2] = tested on: newly formed cells (BrdU) in the subventricular zone and the dentate gyrus; test: BrdU-positive newly formed cells in non-ischemic rats after single dose of DETANONO
Description: Treatment of non-ischemic brain with DETANONO: Rats not subjected to any surgical procedures were treated with DETANONO. The drug was administered as a single dose (iv 0.12 mg). BrdU was injected daily for 14 days after treatment. One population (Group 3) of rats was sacrificed on the last day of BrdU injection, Another population (Group 4) was sacrificed at four weeks after the last BrdU injection. Animals which were not administered DETA-NONO were given BrdU with the identical protocol as that for the DETA-NONO treated rats (Group 5).

[3] = tested on: neuronal progenitor cells in the SVZ and in the dentate gyrus; test: Proliferation of neuronal progenitor cells (BrdU immunoreactive cells) in ischemic adult rats (embolic MCA occlusion)
Description: Two experiments were performed. In the first experiment, the effects of NO on the proliferation of neuronal progenitor cells in the SVZ and the dentate gyrus of non ischemic adult rats were examined. In the second experiment, the effects of NO on the proliferation of neuronal progenitor cells in the SVZ and in the dentate gyrus of ischemic adult rats were examined.
Based on above data, a second experiment was performed to explore NO effects on focal embolic cerebral ischemic brain. All procedures were the same as in the first experiment except for the following procedures.
(§1) Male Wistar rats (n=30) weighing 300-350 g were subjected to middle cerebral artery (MCA) occlusion. The MCA was occluded by placement of an embolus at the origin of the MCA. Briefly, a single intact fibrin rich 24 hour old homologous clot (about 1 μl) was placed at the origin of the MCA via a fifteen mm length of modified PE-50 catheter. The experimental protocol consisted of four groups. In Group I (control group), rats were subjected to MCA occlusion and received four consecutive intravenous bolus doses of saline (0.52 ml each, every fifteen minutes) at 24 hours after ischemia. Group II (DETNO/NO precondition) rats received four consecutive intravenous bolus doses of DETANONO (0.1 mg/kg each, every fifteen minutes, and total dose 0.4 mg/kg) at 24 hours before embolization. Group III (DETANONO two set group), animals received consecutive intravenous bolus doses of DETANONO (0.1 mg/kg each, every fifteen minutes and total dose 0.4 mg/kg) at 24 and 48 hours after occlusion. Group IV (DETANONO seven set group), animals received four consecutive intravenous bolus doses of DETANONO (0.1 mg/kg each, every fifteen minutes and total dose 0.4 mg/kg) at 24 hours after embolization. Subsequently, rats were intraperitoneally injected with DETA/NO at 0.4 mg/kg every day for six consecutive days.

[4] = tested on: focal embolic cerebral ischemic brain; test: Ischemic lesion volume after embolic MCA occlusion; details: ischemic rats
Description: as §1

[5] = tested on: ischemic rats (stroke); test: Battery of neurological functional tests (NSS, Rotarod, footfault, adhesive removal, body weight) after stroke
Description: Administration of nitric oxide donor compound (DETA/NO) to normal and ischemic rats promotes neurogenesis in non-ischemic and ischemic brains. Since then, additional experiments have been performed to test the hypothesis that neurogenesis induced by DETA/NO promotes functional improvement after stroke; the data is provided herewith. Animals were administered (iv/ip) DETA/NO at one day (Group 1) or seven days (Group 2) after induction of stroke and followed by daily injection (ip) of DETA/NO over a period of seven days. Another NO donor compound (SNAP) was administered (iv) to ischemic rats at one day and two days after stroke (Group 3). Young (3 month old) rats were used in Groups 1 and 2. Middle aged rats (10 to 12 months old) were used in Group 3. A battery of neurological functional tests were measured from two days to forty-two days after stroke. These tests included 1) Neurological severity score (NSS) which measures motor, sensory and reflex functions and is similar to the contralateral neglect testing described in humans. The higher the score, the more severe the injury; 2) Rotarod test measures fore and hindlimb motor coordination and balance. Data are presented as percentage of baseline values; 3) Footfault test measures fore and hindlimb motor coordination. The higher the number, the more severe the injury; 4) Adhesive removal test measures sensorimotor impairments. Data are presented as time (seconds). The longer the time period, the more severe the injury; 5) Animal body weight.

## NCCN(CCN)/[N+]([O-])=N/O [DETANONO, DETANONOate]
[1]; Group 1: treated at 24 and 48 hours after stroke, non-treated 37.3±3.6
  BrdU cells in the granule cell layer: 89.5±12
[1]; Group 2: 24 h after stroke then daily ip, BrdU daily 14 days, untreated 1653±91.4
  numbers of BrdU positive cells, subventricular zone: 2748±326
[1]; Group 2: 24 h after stroke then daily ip, untreated 37.3±3.6
  numbers of BrdU positive cells, dentate gyrus granule cell layer: 135±18.9
[1]; Group 2, untreated 10.1±2.4
  numbers of BrdU positive cells, dentate gyrus hilus: 43.8±10.2
[1]; Group 2, untreated 34.9±2.8
  numbers of BrdU positive cells, dentate gyrus (second pair of values, area not named): 53.7±6.3
[1]; ischemic rats
  newly formed cells within the dentate gyrus that were neurons: > 90%
[1]; rats treated with DETANONO and subjected to strokes, estimated
  newly formed cells within the hippocampus of neuronal phenotype: more than 90%
[2]; Group 3: single dose iv 0.12 mg, sacrificed on last day of BrdU injection, Group 5 controls 1432.6±104.6, 1655.2±102.9, in cells/mm2
  BrdU cells, subventricular zones (two values, sides not given): 2952±102.6 and 2725.3±115.5
[2]; Group 3, Group 5 control 39.9±7.26
  BrdU cells, dentate gyrus (granule cell layer): 73.7±8.11
[2]; Group 4: single dose iv 0.12 mg, sacrificed four weeks after last BrdU injection, controls 214.6±67.9, 233.1±49.2, in cells/mm2
  BrdU cells, subventricular zone (two values, sides not given): 456.5±42.3 and 518.4±67.2
[3]; ischemic rats, 14 days and 42 days after MCA occlusion
  BrdU immunoreactive cells in the OB: Significant increases
[3]; ischemic rats, 14 days and 42 days, vs MCA occlusion group
  BrdU immunoreactive cells in dentate gyrus: significant increases
[3]; preconditioned group (24 hours before embolization), contralateral SVZ at 14 days, both SVZs at 42 days, vs non-treated MCA occlusion
  numbers of BrdU immunoreactive cells in the SVZ: Significant (p<0.05) increases
[3]; seven sets, contralateral and ipsilateral SVZ at 14 days and 42 days after MCA occlusion
  BrdU immunoreactive cells in the SVZ: significant increases
[3]; two dosage group (24 and 48 hours after occlusion), ipsilateral SVZ at 14 days, both SVZ at 42 days
  numbers of BrdU immunoreactive cells in the SVZ: significant increase
[4]
  ischemic lesion volume: did not exhibit a significant reduction
[5]; Group 1: from one day after stroke, daily ip over seven days, vs control
  animal body weight: Significant improvements
[5]; Group 1: from one day after stroke, daily ip over seven days, young rats, vs control
  motor and sensorimotor functions (Rotarod, Adhesive Removal, NSS tests): Significant improvements
[5]; Group 2: from seven days after stroke, at 28 and 42 days after stroke, only this test
  neurological function, Rotarod test: significant improvement

Source: patent US8383626B2, “Nitric oxide donors for inducing neurogenesis” (Henry Ford Health System, priority 1999, dated 2013)
